Results taken from ChEMBL document CHEMBL5291721, “A preclinical secondary pharmacology resource illuminates target-adverse drug reaction associations of marketed drugs” (Nat Commun, 2023).

Assays:
[1] = target: Acetylcholinesterase (Homo sapiens, UniProt P22303); type: functional
[2] = target: T1, Alpha-2A adrenergic receptor (Homo sapiens, UniProt P08913)
T1 sequence (P08913 whole entry): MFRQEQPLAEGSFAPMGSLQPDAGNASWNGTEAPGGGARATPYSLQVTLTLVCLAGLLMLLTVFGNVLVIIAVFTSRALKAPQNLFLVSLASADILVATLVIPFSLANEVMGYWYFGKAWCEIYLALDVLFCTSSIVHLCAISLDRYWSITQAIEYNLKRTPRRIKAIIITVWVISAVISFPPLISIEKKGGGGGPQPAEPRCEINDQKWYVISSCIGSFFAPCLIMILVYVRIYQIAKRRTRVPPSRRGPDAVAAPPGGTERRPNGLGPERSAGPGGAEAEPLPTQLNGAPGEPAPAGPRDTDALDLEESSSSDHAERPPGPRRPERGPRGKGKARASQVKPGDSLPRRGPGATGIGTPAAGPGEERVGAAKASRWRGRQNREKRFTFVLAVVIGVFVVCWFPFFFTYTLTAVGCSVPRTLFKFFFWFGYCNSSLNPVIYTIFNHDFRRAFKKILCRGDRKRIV

[3] = target: T2, Muscarinic acetylcholine receptor M2 (Homo sapiens, UniProt P08172)
T2 sequence (P08172 whole entry): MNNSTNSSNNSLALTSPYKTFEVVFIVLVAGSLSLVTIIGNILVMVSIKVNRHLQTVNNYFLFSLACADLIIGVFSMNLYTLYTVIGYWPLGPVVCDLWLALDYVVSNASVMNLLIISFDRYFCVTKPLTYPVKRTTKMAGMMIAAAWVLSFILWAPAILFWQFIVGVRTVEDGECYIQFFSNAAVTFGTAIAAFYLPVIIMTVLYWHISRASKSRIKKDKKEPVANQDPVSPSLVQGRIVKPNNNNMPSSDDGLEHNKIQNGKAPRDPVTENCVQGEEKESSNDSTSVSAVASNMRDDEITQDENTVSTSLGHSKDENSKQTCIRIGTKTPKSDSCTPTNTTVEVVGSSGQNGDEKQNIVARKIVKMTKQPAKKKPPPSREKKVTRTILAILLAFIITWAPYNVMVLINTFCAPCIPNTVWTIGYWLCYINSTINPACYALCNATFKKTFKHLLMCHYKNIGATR

[4] = target: D(1A) dopamine receptor (Homo sapiens, UniProt P21728)
[5] = target: D(3) dopamine receptor (Homo sapiens, UniProt P35462)
[6] = target: Prothrombin (Homo sapiens, UniProt P00734); type: functional
[7] = target: Histamine H3 receptor (Homo sapiens, UniProt Q9Y5N1)
[8] = target: T3, 5-hydroxytryptamine receptor 1A (Homo sapiens, UniProt P08908)
T3 sequence (P08908 whole entry): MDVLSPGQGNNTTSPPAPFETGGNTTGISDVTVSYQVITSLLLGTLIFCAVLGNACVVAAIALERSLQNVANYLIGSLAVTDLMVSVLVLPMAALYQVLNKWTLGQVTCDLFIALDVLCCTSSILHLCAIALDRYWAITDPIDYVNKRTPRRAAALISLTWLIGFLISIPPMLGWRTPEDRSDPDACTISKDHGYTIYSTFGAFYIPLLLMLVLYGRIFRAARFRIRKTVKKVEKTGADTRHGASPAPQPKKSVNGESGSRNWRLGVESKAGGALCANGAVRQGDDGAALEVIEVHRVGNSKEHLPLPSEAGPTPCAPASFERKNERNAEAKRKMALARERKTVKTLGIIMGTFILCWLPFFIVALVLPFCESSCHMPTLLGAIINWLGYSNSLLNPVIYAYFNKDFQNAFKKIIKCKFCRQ

[9] = target: T4, Amine oxidase [flavin-containing] A (Homo sapiens, UniProt P21397); type: functional
T4 sequence (P21397 whole entry): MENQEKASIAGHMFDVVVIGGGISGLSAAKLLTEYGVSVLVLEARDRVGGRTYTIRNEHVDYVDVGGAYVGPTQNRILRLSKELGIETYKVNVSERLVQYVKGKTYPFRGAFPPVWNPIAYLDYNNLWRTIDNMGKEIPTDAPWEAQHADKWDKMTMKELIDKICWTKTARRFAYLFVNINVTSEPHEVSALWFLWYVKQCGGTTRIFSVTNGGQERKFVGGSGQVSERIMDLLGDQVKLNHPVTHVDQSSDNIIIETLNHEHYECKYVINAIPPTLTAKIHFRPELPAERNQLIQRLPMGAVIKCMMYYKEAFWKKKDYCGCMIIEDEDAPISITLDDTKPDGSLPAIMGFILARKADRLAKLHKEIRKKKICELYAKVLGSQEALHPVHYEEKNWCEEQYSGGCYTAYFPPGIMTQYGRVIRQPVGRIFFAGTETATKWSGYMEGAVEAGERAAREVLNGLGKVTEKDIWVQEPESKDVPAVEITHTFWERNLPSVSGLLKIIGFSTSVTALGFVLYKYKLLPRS

[10] = target: Mu-type opioid receptor (Homo sapiens, UniProt P35372)
[11] = target: Prostaglandin G/H synthase 1 (Homo sapiens, UniProt P23219); type: functional
[12] = target: Sodium-dependent noradrenaline transporter (Homo sapiens, UniProt P23975)
[13] = target: T5, Thromboxane A2 receptor (Homo sapiens, UniProt P21731); type: functional, cell-based
T5 sequence (P21731 whole entry): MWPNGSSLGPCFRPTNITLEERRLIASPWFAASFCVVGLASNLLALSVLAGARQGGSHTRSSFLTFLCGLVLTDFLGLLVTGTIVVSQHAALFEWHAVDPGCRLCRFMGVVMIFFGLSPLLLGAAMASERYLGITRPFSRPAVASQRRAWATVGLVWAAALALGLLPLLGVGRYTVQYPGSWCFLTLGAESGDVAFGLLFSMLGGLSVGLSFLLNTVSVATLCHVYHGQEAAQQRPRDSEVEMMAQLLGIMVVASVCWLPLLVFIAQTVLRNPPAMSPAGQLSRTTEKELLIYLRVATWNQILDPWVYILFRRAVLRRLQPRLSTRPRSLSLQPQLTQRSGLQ

[14] = target: T5, Thromboxane A2 receptor; type: functional, cell-based; remark: listed apart in the source

Measured: AC50
Also: assay procedure not described here.

Sequence of Mu-type opioid receptor (P35372 whole entry): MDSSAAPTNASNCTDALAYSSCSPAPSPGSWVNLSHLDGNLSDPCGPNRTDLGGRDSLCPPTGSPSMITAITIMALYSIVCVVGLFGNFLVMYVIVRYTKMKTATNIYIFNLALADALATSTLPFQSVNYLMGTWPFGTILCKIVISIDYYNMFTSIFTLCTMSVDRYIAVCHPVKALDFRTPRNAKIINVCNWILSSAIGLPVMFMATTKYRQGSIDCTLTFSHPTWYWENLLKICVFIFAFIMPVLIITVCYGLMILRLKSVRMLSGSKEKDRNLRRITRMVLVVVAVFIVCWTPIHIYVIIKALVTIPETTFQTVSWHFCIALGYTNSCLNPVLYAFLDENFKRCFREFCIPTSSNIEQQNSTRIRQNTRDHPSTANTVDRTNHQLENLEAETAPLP
Sequence of D(3) dopamine receptor (P35462 whole entry): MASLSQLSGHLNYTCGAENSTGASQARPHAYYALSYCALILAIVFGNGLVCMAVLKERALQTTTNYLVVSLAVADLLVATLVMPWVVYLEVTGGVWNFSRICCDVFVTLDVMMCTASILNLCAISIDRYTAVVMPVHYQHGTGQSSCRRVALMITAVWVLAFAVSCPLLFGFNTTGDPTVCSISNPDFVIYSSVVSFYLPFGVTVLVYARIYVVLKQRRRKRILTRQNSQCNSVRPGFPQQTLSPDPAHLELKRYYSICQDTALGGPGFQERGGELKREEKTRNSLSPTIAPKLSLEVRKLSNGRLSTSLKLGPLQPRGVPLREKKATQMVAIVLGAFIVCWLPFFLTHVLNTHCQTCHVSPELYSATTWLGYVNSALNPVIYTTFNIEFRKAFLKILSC
Sequence of Histamine H3 receptor (Q9Y5N1 whole entry): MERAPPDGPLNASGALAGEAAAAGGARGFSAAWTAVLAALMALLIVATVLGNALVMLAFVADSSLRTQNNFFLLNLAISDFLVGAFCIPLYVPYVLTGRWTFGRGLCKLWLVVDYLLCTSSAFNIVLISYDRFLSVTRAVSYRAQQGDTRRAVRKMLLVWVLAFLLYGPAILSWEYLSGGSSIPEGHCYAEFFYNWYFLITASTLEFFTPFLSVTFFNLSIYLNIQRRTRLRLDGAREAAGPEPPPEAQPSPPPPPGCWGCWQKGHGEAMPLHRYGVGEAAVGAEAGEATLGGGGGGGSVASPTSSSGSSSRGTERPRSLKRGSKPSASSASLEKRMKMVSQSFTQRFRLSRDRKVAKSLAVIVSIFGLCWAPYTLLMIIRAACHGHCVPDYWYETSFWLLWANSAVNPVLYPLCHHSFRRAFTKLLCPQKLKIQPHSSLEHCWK
Sequence of Prostaglandin G/H synthase 1 (P23219 whole entry): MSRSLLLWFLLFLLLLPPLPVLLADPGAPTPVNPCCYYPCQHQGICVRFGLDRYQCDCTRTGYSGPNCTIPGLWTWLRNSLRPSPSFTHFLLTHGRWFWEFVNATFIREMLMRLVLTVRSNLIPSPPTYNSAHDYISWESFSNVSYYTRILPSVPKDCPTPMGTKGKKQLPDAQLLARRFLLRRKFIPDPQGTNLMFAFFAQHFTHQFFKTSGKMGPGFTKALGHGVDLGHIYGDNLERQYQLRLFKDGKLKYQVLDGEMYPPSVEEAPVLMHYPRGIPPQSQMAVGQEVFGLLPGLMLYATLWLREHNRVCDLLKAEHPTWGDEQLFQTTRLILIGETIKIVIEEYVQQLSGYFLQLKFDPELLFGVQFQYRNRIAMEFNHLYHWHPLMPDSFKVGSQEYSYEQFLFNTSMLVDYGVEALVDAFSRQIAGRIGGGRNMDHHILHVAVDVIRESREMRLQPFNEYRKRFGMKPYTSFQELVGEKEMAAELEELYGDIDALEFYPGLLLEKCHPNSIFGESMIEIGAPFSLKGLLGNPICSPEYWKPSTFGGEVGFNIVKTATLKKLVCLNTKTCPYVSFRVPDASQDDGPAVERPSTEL
Sequence of Sodium-dependent noradrenaline transporter (P23975 whole entry): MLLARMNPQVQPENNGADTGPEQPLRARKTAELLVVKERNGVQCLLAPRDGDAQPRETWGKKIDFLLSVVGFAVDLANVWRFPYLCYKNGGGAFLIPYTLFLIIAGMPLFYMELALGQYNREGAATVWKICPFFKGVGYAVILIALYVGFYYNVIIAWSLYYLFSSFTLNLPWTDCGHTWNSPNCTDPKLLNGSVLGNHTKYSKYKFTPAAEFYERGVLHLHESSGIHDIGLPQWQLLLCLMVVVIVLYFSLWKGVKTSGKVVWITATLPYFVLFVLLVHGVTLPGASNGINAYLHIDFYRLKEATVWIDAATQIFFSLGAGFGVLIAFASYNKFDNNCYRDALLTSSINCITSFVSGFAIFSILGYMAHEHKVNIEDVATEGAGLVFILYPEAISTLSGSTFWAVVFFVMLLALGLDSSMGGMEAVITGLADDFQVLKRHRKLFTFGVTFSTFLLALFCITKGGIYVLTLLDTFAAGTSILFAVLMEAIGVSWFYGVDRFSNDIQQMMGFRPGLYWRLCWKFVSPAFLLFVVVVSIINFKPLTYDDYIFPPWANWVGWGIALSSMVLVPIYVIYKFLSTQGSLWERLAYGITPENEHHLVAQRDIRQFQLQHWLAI
Sequence of D(1A) dopamine receptor (P21728 whole entry): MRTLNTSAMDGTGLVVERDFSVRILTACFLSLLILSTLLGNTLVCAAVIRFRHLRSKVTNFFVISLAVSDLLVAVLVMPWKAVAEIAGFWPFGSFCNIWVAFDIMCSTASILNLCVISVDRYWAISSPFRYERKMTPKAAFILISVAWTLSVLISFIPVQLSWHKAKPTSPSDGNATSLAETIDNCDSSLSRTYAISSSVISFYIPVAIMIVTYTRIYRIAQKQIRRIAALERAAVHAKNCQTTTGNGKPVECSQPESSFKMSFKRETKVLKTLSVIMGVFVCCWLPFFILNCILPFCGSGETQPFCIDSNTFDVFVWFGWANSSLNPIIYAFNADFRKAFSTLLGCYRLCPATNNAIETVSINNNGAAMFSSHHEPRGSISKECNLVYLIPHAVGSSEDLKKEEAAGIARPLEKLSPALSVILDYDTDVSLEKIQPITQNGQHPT
Sequence of Acetylcholinesterase (P22303 whole entry): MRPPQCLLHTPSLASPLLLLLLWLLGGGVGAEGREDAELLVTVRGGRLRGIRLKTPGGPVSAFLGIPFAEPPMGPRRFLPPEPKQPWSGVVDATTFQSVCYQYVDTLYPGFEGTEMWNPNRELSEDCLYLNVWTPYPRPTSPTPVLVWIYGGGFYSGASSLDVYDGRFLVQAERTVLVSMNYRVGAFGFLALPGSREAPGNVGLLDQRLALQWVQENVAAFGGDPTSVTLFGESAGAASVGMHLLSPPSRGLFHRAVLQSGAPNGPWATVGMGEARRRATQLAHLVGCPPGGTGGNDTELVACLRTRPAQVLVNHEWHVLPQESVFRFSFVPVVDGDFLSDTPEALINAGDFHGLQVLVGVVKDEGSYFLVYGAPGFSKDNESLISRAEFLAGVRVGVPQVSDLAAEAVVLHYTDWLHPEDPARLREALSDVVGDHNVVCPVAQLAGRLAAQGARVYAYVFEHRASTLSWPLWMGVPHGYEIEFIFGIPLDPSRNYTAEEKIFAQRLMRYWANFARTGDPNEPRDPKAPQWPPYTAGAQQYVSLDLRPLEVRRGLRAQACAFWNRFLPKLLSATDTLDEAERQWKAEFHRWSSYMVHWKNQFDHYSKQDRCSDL

CC1(C)S[C@@H]2[C@H](NC(=O)[C@H](NC(=O)N3CCN(S(C)(=O)=O)C3=O)c3ccccc3)C(=O)N2[C@H]1C(=O)O [MEZLOCILLIN]
> 30 µM: [1] | [2] | [3] | [4] | [5] | [6] | [7] | [8] | [9] | [10] | [11] | [12] | [13] | [14]
